Measured values reported in patent US20250152580A1, “METHODS FOR TREATING IMMUNE DISEASES” (Ascentage Pharma (Suzhou) co., Ltd., priority 2022, published 2025).
Entries after “also recorded” stand apart in the source; their conditions may differ.

Legend:
[1] = tested on: LPS inhalation induced lung neutrophils infiltration model; assay: LPS inhalation induced neutrophils infiltration model in C57BL/6 mice; format: in vivo; conditions: Cpd. 4 50 mg/kg oral each day, Cpd. X 50 mg/kg iv twice a week, Cpd. XI 12 mg/kg iv twice a week, week 4-10; compared with Vehicle
Procedure: C57BL/6 mice (6-8 weeks old) were obtained from Shanghai LC Laboratory Animal Co. Ltd. Animals, housed and handled in a temperature-controlled environment with a 12-h light/12-h dark cycle. A total of 60 female C57BL/6J mice will be modeled by atomization inhalation LPS 3 times a week for 10 weeks (adjustments may be made according to animal health status). LPS concentration is at 0.7 mg/mL. On each day of challenge, animals in G1 will receive aerosol inhalation of PBS and intravenous injection of Vehicle; animals in G2 will receive aerosol inhalation of LPS and intravenous injection of Vehicle; animals in G3 will be given aerosol inhalation of LPS and intravenous injection of 50 mg/kg Cpd. X twice a week (D1/4) from week 4-10; animals in G4 will be given aerosol inhalation of LPS and intravenous injection of 12 mg/kg Cpd.XI twice a week (D1/4) from week 4-10; animals in G5 will be given aerosol inhalation of LPS and oral administration of 50 mg/kg Cpd. 4 each day from week 4-10; animals in G6 will be given aerosol inhalation of LPS and oral administration of dexamethasone 1 hour before each challenge. Lungs will be gently lavaged via the tracheal cannula with 0.8 mL of PBS containing 1% BSA and 0.6 mM EDTA 48 hr after the last LPS exposure. The procedure will be repeated twice with 0.8 mL of PBS containing 1% BSA and 0.6 mM EDTA. The bronchoalveolar lavage fluid (BALF) will be centrifuged at 300×g for 5 min at 4° C., the cell pellet will be resuspended in 1.5 mL PBS. Total numbers of neutrophils in BALF will be counted using a hemocytometer.

[2] = tested on: TNBS induced inflammatory bowel disease (IBD) model; assay: TNBS induced inflammatory bowel disease (IBD) model in Balb/c mice; format: in vivo; conditions: for colon weight: vehicle 336.8±25.15 mg; for colon length: vehicle 6.26±0.16 cm; for pathological score (colon, H&E): vehicle 10.33±0.35
Source text: There are two kinds of IBD: Crohn's disease (CD) and ulcerative colitis (UC). TNBS administration results in a preclinical mouse model replicating clinical Crohn's disease.
Female Balb/c mice (8 weeks old) were obtained from Beijing Vital River Laboratory Animal Co. Ltd. Animals were housed and handled in a temperature-controlled environment with a 12-h light/12-h dark cycle. A total of 50 mice were assigned to 5 groups by randomization based on body weight.
On Day 0, the mice weighing 18-20 g were anesthetized with […] (Easycheck, M2910). The mice were further intra-rectally injected 100 μL 1.5% TNBS solution (final concentration 50% ethanol) in the vehicle group and other treatment groups. For the Sham group, the mice were intra-rectally injected with 50% ethanol at the same volume.
Mice in Group 1 and Group 2 were treated with vehicle for 8 days (po, qd, from day −1 to day 6). Mice in Group 3 were treated with 50 mg/kg Cpd. 4 for 8 days (preventive regimen, po, qd, from day −1 to day 6). Mice in Group 4 were treated with 50 mg/kg Cpd. 4 for 6 days (therapeutic regimen, po, qd, from day 1 to day 6). 50 mg/kg Mesalamine was used as positive control which was orally administered to mice in Group 5 for 8 days (preventive regimen, qd, from day −1 to day 6). The protocols and procedures involving the care and use of animals were approved by the Institutional Animal Care and Use Committee (IACUC) at WuxiApptec (Shanghai, China).
Clinical signs of IBD were assessed every day based on the score of disease activity index (DAI) which was evaluated from three parameters using a scoring system from 0 to 4: stool consistency (0, normal stool; 1, soft but still formed stool; 2, soft and not formed stool; 3, very soft and wet stool; 4, watery diarrhea), bleeding score (0, negative hemoccult; 1, weak positive hemoccult; 2, positive hemoccult; 3, blood trace in stool visible; 4, gross rectal bleeding) and body weight loss (0, no body weight loos; 1, 1-5% body weight loss; 2, 6-10% body weight loss; 3, 11-20% body weight loss; 4, >20% body weight loss).
At the end of induction with TNBS (day 7), the animals were euthanized, dissected and the entire colon was quickly removed and gently cleared of feces.
The entire colon was weighed, and the total length was measured. Colon weight gain and shortening is an indirect marker of inflammation. As expected, colon weight induced by TNBS increased to 336.8±25.15 mg. […] The TNBS-induced colon weight increasement were improved by Cpd. 4 treatment (202.4±3.95 mg for 50 mg/kg Cpd. 4 preventive therapy and 214.4±5.17 mg for 50 mg/kg Cpd. 4 therapeutic therapy) (FIG. 2).
At the end of induction with TNBS, the animals were euthanized, and blood was collected immediately by the heart punctures and used for whole blood cell analysis.
At the end of the study (day 7), the cell suspensions from sham control, model control and Cpd. 4 therapeutic treatment groups were obtained from mesenteric lymph nodes (MLN). Cells were stained with the following florescence-labelled antibodies: APC-Cy7-conjugated anti-mouse CD45, BV510-conjugated anti-mouse CD3e, AF700-conjugated anti-mouse CD8a, BUV395-conjugated anti-mouse CD4, BV421-conjugated anti-mouse CD25, FITC-conjugated anti-mouse Foxp3, BV650-conjugated anti-mouse IFN-γ, BV786-conjugated anti-mouse IL-17A, BB700-conjugated anti-mouse TNF-α, APC-conjugated anti-mouse B220, BV395-conjugated anti-mouse CD3e, BV605-conjugated anti-mouse CD11b, BB700-conjugated anti-mouse CD11c, AF488-conjugated anti-mouse MHCII, BV421-conjugated anti-mouse NK1.1, BV510-conjugated anti-mouse Ly6G, PE-Cy7-conjugated anti-mouse CD107a and PE-CF594-conjugated anti-mouse F4/80. All cells were primarily gated on single and live lymphocytes based on forward scatter (FCS), side scatter (SSC) and live/dead staining buffer. Samples were analyzed on a flow cytometer (BD LSRFortessa) to count the percentage of each subtype of lymphocytes. […]

[3] = 50 mg/kg po qd preventive treatment, day 7
[4] = 50 mg/kg po qd therapeutic treatment, day 7
[5] = 50 mg/kg po qd, Cpd. 4 preventive and therapeutic, mesalamine day −1 to day 6, compared with Vehicle
[6] = Cpd. 4 50 mg/kg po qd, preventive and therapeutic, compared with Vehicle, 50 mg/kg
[7] = mesenteric lymph nodes, flow cytometry, day 7, 50 mg/kg therapeutic treatment, compared with vehicle

`O=C(NS(=O)(=O)c1ccc(NC[C@H]2COCCO2)c([N+](=O)[O-])c1)c1ccc(N2CCN(CC3=C(c4ccc(Cl)cc4)CC4(CCC4)CC3)CC2)cc1Oc1cnc2[nH]ccc2c1` [Cpd. 4, (S)-N-((4-(((1,4-dioxan-2-yl)methyl)amino)-3-nitrophenyl)sulfonyl)-2-((1H-pyrrolo[2,3-b]pyridin-5-yl)oxy)-4-(4-((6-(4-chlorophenyl)spiro[3.5]non-6-en-7-yl)methyl)piperazin-1-yl)benzamide] was tested, and the “BALF neutrophils (infiltration in lung)” value [1] was “significantly reducing the BALF neutrophils; also recorded: significantly reduced”, the colon weight ([2]; 50 mg/kg po qd preventive therapy (day −1 to day 6), day 7) was 202.4 ± 3.95 mg and the colon length [2, 3] was 7.81±0.2 cm. The “pathological score (colon, H&E)” value [2, 3] was 2.70±0.80, the colon weight ([2]; 50 mg/kg po qd therapeutic therapy (day 1 to day 6), day 7) was 214.4 ± 5.17 mg and the colon length [2, 4] was 7.39±0.12 cm. For the same molecule, the “pathological score (colon, H&E)” value [2, 4] was 5.00±1.15, the “disease activity index (DAI), clinical score of IBD” value ([2]; 50 mg/kg po qd, Cpd. 4 preventive (day −1 to day 6) and therapeutic (day 1 to day 6) regimens, mesalamine day −1 to day 6, compared with Vehicle) was “significantly reducing the clinical score; also recorded: significantly reduced DAI” and the “colon length (in words)” value [2, 5] was “increased colon length”. The “colon weight (in words)” value [2, 5] was “significantly decreased colon weight”, the body weight loss ([2]; Cpd. 4 50 mg/kg po qd, preventive and therapeutic regimens, compared with Vehicle, 50 mg/kg) was “improving body weight loss; also recorded: improved body weight loss” and the “cell number of monocytes in peripheral blood” value [2, 6] was “significantly reduced; also recorded: significantly decreased”. For the same molecule, the “cell number of neutrophils in peripheral blood” value [2, 6] was “significantly reduced; also recorded: significantly decreased”, the “anemia (red blood cells and hemoglobin in peripheral blood)” value ([2]; Cpd. 4 50 mg/kg po qd, compared with Vehicle) was “improved anemia” and the “fibrosis score (Masson's Trichrome staining of colon)” value ([2]; Cpd. 4 50 mg/kg therapeutic treatment, compared with Vehicle) was “significantly reduced”. The “pathological score (in words)” value ([2]; Cpd. 4 preventive and therapeutic, compared with Vehicle) was “significantly decreased”, the “percentage of IFN-γ secreting CD4+ T cells (Th1 cells)” value [2, 7] was “significantly reduced” and the “percentage of IL-17A secreting CD4+ T cells (Th17 cells)” value [2, 7] was “significantly reduced”. For the same molecule, the “percentage of NK cells (CD45+CD3−B220−NK1.1+)” value [2, 7] was “significantly reduced”, the “percentage of activated NK cells (CD45+CD3−B220−NK1.1+CD107a+)” value [2, 7] was “significantly reduced” and the “percentage of macrophages (CD45+CD3−B220−CD11b+F4/80+)” value [2, 7] was “significantly reduced”. For the same molecule, the “percentage of neutrophils (CD45+CD3−B220−CD11B+LY6G+)” value [2, 7] was “significantly reduced”.
